One assay has as its target FGFR2 (Homo sapiens, UniProt P21802). In words: Z'-LYTE SelectScreen biochemical kinase assay FGFR2. An excerpt: (§1) Thermo Fisher Scientific SelectScreen™ Biochemical Kinase Profiling Service Z′-LYTE™ Screening Protocol and Assay Conditions Assay Theory
(§2) The […] biochemical assay employs a fluorescence-based, coupled-enzyme format and is based on the differential sensitivity of phosphorylated and non-phosphorylated peptides to proteolytic cleavage. The peptide substrate is labeled with two fluorophores—one at each end—that make up a FRET pair. In the primary reaction, the kinase transfers the gamma-phosphate of ATP to a single tyrosine, serine or threonine residue in a synthetic FRET-peptide. In the secondary reaction, a site-specific protease recognizes and cleaves non-phosphorylated FRET-peptides. Phosphorylation of FRET-peptides suppresses cleavage by the Development Reagent. Cleavage disrupts FRET between the donor (i.e., coumarin) and acceptor (i.e., fluorescein) fluorophores on the FRET-peptide, whereas uncleaved, phosphorylated FRET-peptides maintain FRET. A ratiometric method, which calculates the ratio (Emission Ratio=Coumarin emission (445 nm)/Fluorescein emission (520 nm)) of donor emission to acceptor emission after excitation of the donor fluorophore at 400 nm, is used to quantitate reaction progress, as shown in the equation below. A significant benefit of this ratiometric method for quantitating reaction progress is the elimination of well-to-well variations in FRET-peptide concentration and signal intensities. As a result, the assay yields very high Z′-factor values (>0.7) at a low percent phosphorylation. Both cleaved and uncleaved FRET-peptides contribute to the fluorescence signals and therefore to the Emission Ratio. The extent of phosphorylation of the FRET-peptide can be calculated from the Emission Ratio. The Emission Ratio will remain low if the FRET-peptide is phosphorylated (i.e., no kinase inhibition) and will be high if the FRET-peptide is non-phosphorylated (i.e., kinase inhibition).
(§3) The Test Compounds are screened in 1% DMSO (final) in the well. For 10 point titrations, 3-fold serial dilutions are conducted from the starting concentration of the customer's choosing.
(§4) All Peptide/Kinase Mixtures are diluted to a 2× working concentration in the appropriate Kinase Buffer (see section Kinase Specific Assay Conditions for a complete description).
(§5) All ATP Solutions are diluted to a 4× working concentration in Kinase Buffer (50 mM HEPES pH 7.5, 0.01% BRIJ-35, 10 mM MgCl2, 1 mM EGTA). ATP Km apparent is previously determined using a Z″-LYTE assay.
(§6) The Development Reagent is diluted in Development Buffer (see section Kinase-Specific Assay Conditions—Direct and Cascade for a complete description).
(§7) Bar-coded Corning, low volume NBS, black 384-well plate (Corning Cat. #4514) • 1. 100 nL—100× Test Compound in 100% DMSO • 2. 2.4 μL—Kinase buffer • 3. 5 μL—2× Peptide/Kinase Mixture • 4. 2.5 μL—4×ATP Solution • 5. 30—second plate shake • 6. 60—minute Kinase Reaction incubation at room temperature • 7. 5 μL—Development Reagent Solution • 8. 30—second plate shake • 9. 60—minute Development Reaction incubation at room temperature • 10. Read on fluorescence plate reader and analyze the data Z′-LYTE Assay Controls
(§8) SelectScreen Kinase Profiling Service uses XLfit from IDBS. The dose response curve is curve fit to model number 205 (sigmoidal dose-response model).
The 2×FGFR2/Tyr 04 mixture is prepared in 50 mM HEPES pH 7.5, 0.01% BRIJ-35, 10 mM MgCl2, 4 mM MnCl2, 1 mM EGTA, 2 mM DTT. The final 10 μL Kinase Reaction consists of 0.19-1.99 ng FGFR2 and 2 μM Tyr 04 in 50 mM HEPES pH 7.5, 0.01% BRIJ-35, 10 mM MgCl2, 2 mM MnCl2, 1 mM EGTA, 1 mM DTT. After the 1 hour Kinase Reaction incubation, 5 μL of a 1:64 dilution of Development Reagent B is added.

For another assay, the target named is RPS6KB1 (p70S6K) (Homo sapiens, UniProt P23443). In words: Z'-LYTE SelectScreen biochemical kinase assay RPS6KB1 (p70S6K).
RPS6KB1 (p70S6K), sequence (P23443 whole entry): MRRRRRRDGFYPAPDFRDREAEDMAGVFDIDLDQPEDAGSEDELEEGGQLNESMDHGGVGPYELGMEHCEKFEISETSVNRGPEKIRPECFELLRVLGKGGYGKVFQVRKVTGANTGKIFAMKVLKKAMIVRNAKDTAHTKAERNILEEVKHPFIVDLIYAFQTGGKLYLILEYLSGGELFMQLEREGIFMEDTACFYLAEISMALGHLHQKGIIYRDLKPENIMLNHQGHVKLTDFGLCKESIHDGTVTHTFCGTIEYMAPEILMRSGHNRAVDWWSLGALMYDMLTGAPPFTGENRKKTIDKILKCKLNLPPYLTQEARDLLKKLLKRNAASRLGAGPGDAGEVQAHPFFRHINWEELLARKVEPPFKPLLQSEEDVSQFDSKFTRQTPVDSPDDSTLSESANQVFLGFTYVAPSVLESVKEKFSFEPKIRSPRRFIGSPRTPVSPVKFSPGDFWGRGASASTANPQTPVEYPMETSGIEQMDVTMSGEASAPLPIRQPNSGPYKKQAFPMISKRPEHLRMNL
From the text: as §1, §2, §3, §4, §5, §6, §7, §8
The 2×RPS6 KB1 (p70S6K)/Ser/Thr 07 mixture is prepared in 50 mM HEPES pH 7.5, 0.01% BRIJ-35, 10 mM MgCl2, 1 mM EGTA. The final 10 μL Kinase Reaction consists of 2.87-17.7 ng RPS6 KB1 (p70S6K) and 2 μM Ser/Thr 07 in 50 mM HEPES pH 7.5, 0.01% BRIJ-35, 10 mM MgCl2, 1 mM EGTA. After the 1 hour Kinase Reaction incubation, 5 μL of a 1:45000 dilution of Development Reagent A is added.

A further assay deals with LYN B (Homo sapiens, UniProt P07948). The assay can be described thus: Z'-LYTE SelectScreen biochemical kinase assay LYN B.
LYN B, sequence (P07948 1-491 isoform P07948-2): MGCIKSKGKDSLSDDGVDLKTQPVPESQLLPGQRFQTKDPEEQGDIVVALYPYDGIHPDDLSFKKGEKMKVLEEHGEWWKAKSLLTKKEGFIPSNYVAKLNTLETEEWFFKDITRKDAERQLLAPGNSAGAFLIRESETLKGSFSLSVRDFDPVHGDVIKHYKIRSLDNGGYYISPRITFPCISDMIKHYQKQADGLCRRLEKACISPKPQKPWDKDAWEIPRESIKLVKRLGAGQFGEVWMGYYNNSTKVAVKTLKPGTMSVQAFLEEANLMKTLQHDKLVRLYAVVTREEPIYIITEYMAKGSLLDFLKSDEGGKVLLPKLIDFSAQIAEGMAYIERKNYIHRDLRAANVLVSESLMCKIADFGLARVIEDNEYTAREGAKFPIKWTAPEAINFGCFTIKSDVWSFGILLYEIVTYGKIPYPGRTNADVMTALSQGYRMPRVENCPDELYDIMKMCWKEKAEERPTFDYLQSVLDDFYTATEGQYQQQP
From the text: as §1, §2, §3, §4, §5, §6, §7, §8
The 2×LYN B/Tyr 02 mixture is prepared in 50 mM HEPES pH 7.5, 0.01% BRIJ-35, 10 mM MgCl2, 1 mM EGTA. The final 10 μL Kinase Reaction consists of 0.85-14.8 ng LYN B and 2 μM Tyr 02 in 50 mM HEPES pH 7.5, 0.01% BRIJ-35, 10 mM MgCl2, 1 mM EGTA. After the 1 hour Kinase Reaction incubation, 5 μL of a 1:128 dilution of Development Reagent A is added.

In another assay the target is PDGFRA (PDGFR alpha) (Homo sapiens, UniProt P16234). In words: Z'-LYTE SelectScreen biochemical kinase assay PDGFRA (PDGFR alpha).
PDGFRA (PDGFR alpha), sequence (P16234 24-1089): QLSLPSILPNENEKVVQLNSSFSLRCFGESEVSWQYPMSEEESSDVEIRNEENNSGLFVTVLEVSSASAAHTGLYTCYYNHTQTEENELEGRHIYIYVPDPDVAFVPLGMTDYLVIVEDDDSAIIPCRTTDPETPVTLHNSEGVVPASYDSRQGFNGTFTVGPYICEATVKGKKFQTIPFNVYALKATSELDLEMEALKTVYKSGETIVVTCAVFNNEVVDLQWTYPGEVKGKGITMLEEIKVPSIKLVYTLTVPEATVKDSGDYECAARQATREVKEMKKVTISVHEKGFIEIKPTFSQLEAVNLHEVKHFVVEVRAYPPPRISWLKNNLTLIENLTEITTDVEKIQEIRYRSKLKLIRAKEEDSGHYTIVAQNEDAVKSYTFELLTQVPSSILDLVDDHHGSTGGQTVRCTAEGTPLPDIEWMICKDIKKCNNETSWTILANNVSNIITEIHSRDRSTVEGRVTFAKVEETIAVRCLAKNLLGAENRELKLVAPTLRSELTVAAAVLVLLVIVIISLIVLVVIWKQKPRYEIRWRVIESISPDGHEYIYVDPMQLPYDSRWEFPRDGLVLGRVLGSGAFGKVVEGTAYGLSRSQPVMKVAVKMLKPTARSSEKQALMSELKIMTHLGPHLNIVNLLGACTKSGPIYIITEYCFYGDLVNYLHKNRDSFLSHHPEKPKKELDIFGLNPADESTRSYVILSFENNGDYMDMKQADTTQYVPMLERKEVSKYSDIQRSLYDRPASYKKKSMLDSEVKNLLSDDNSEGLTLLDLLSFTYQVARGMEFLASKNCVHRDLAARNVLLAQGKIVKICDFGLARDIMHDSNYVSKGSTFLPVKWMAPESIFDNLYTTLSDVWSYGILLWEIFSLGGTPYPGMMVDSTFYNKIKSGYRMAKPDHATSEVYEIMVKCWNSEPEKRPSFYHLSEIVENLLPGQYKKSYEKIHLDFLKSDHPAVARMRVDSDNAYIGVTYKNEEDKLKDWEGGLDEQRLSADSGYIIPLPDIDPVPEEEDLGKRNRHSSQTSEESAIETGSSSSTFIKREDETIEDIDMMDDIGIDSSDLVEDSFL
From the text: as §1, §2, §3, §4, §5, §6, §7, §8
The 2×PDGFRA (PDGFR alpha)/Tyr 04 mixture is prepared in 50 mM HEPES pH 7.5, 0.01% BRIJ-35, 10 mM MgCl2, 4 mM MnCl2, 1 mM EGTA, 2 mM DTT. The final 10 μL Kinase Reaction consists of 1.54-22.6 ng PDGFRA (PDGFR alpha) and 2 μM Tyr 04 in 50 mM HEPES pH 7.5, 0.01% BRIJ-35, 10 mM MgCl2, 2 mM MnCl2, 1 mM EGTA, 1 mM DTT. After the 1 hour Kinase Reaction incubation, 5 μL of a 1:64 dilution of Development Reagent B is added.

Setting [1] is: 10 μmolar compound concentration, ATP at Km app, read-out: FGFR2 inhibition.
Setting [2] is: read-out: % Inhibition mean FGFR2.
Where [3] appears, read: 10 μmolar compound concentration, ATP at Km app, read-out: RPS6KB1 (p70S6K) inhibition.
Setting [4] is: read-out: % Inhibition mean RPS6KB1 (p70S6K).
[5] abbreviates: 10 μmolar compound concentration, ATP at Km app, read-out: LYN B inhibition.
[6] abbreviates: read-out: % Inhibition mean LYN B.
Setting [7] is: 10 μmolar compound concentration, ATP at Km app, read-out: PDGFRA (PDGFR alpha) inhibition.
Setting [8] is: read-out: % Inhibition mean PDGFRA (PDGFR alpha).

Where two headings read alike, the source gives them in different places.

FGFR2, sequence (P21802 22-821): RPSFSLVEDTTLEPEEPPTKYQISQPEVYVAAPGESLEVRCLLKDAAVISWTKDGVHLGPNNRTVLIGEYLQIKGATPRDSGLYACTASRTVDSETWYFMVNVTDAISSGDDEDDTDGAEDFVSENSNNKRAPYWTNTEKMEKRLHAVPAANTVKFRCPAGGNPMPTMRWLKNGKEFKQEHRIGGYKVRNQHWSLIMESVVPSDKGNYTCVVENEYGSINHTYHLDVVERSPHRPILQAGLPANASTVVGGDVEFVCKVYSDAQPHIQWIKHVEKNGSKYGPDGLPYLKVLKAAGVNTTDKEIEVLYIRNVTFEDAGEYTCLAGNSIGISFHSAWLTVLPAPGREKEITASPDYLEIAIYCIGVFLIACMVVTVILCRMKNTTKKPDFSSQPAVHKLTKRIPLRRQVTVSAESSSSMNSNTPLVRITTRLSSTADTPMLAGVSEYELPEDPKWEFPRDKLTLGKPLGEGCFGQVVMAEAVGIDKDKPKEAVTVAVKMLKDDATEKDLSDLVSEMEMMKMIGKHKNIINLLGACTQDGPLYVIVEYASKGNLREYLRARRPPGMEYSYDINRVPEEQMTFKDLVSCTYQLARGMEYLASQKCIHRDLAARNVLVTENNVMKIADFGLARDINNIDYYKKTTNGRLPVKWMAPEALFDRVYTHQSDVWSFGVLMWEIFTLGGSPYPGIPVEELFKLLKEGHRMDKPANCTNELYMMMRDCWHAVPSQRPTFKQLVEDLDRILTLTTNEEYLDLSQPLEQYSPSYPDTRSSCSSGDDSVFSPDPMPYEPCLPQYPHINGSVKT

For `CCn1ncc2c1CCC(Nc1nc3c(-c4cncc(OC)c4)cccn3n1)C2` (centres unmarked) [Example 70, (1-Ethyl-4,5,6,7-tetrahydro-1H-indazol-5-yl)-[8-(5-methoxy-pyridin-3-yl)-[1,2,4]triazolo[1,5-a]pyridine-2-yl]-amine], the inhibition at 10 µM is less than 40% on FGFR2 (setting [1]); 12% on FGFR2 (setting [2]); less than 40% at RPS6KB1 (p70S6K) (setting [3]); -3% at RPS6KB1 (p70S6K) (setting [4]); less than 40% on LYN B (setting [5]); 22% at LYN B (setting [6]). Also, the inhibition at 10 µM was less than 40% on PDGFRA (PDGFR alpha) (setting [7]) and 17% on PDGFRA (PDGFR alpha) (setting [8]).
For `CCn1ncc2c1CCC(Nc1nc3c(-c4ccc(OC)nc4)cccn3n1)C2` (centres unmarked) [Example 71, (1-Ethyl-4,5,6,7-tetrahydro-1H-indazol-5-yl)-[8-(6-methoxy-pyridin-3-yl)-[1,2,4]triazolo[1,5-a]pyridine-2-yl]-amine], the inhibition at 10 µM at FGFR2 (setting [1]) is less than 40%; at FGFR2 (setting [2]), 27%; on RPS6KB1 (p70S6K) (setting [3]), less than 40%; on RPS6KB1 (p70S6K) (setting [4]), 23%; on LYN B (setting [5]) it was less than 40%; at LYN B (setting [6]), 24%. In addition, the inhibition at 10 µM at PDGFRA (PDGFR alpha) (setting [7]) was less than 40%; on PDGFRA (PDGFR alpha) (setting [8]), 21%.
Regarding `CCn1ncc2c1CC[C@@H](Nc1nc3c(-c4ccc(F)c(Cl)c4)cccn3n1)C2` [Example R-61, (R)-[8-(3-Chloro-4-fluoro-phenyl)-[1,2,4]triazolo[1,5-a]pyridine-2-yl]-(1-ethyl-4,5,6,7-tetrahydro-1H-indazol-5-yl)-amine], the inhibition at 10 µM on FGFR2 (setting [1]) was less than 40%; on FGFR2 (setting [2]), 12%; at RPS6KB1 (p70S6K) (setting [3]), less than 40%; at RPS6KB1 (p70S6K) (setting [4]), 3%; at LYN B (setting [5]), less than 40%; on LYN B (setting [6]), 17%. The inhibition at 10 µM at PDGFRA (PDGFR alpha) (setting [7]) is less than 40%; at PDGFRA (PDGFR alpha) (setting [8]), 18%.
Take `CCn1ncc2c1CCC(Nc1nc3c(-c4ccc(F)cc4)cccn3n1)C2` (centres unmarked) [Example 55, (1-Ethyl-4,5,6,7-tetrahydro-1H-indazol-5-yl)-[8-(4-fluoro-phenyl)-[1,2,4]triazolo[1,5-a]pyridine-2-yl]-amine]: the inhibition at 10 µM on FGFR2 (setting [1]) is less than 40%; at FGFR2 (setting [2]) it was 13%; on RPS6KB1 (p70S6K) (setting [3]), less than 40%; on RPS6KB1 (p70S6K) (setting [4]), 11%; on LYN B (setting [5]), less than 40%; on LYN B (setting [6]), 27%. For the same molecule, the results for the inhibition at 10 µM at PDGFRA (PDGFR alpha) (setting [7]) and at PDGFRA (PDGFR alpha) (setting [8]) were less than 40% and 16%, respectively.
Take `CCCCCn1ncc2c1CCC(Nc1nc3c(-c4ccc(F)cc4C)cccn3n1)C2` (centres unmarked) [Example 47, [8-(4-fluoro-2-methyl-phenyl)-[1,2,4]triazolo[1,5-a]pyridine-2-yl]-(1-pentyl-4,5,6,7-tetrahydro-1H-indazol-5-yl)-amine]: the inhibition at 10 µM on FGFR2 (setting [1]) was less than 40%; on FGFR2 (setting [2]), 21%; at RPS6KB1 (p70S6K) (setting [3]), less than 40%; on RPS6KB1 (p70S6K) (setting [4]), 12%; at LYN B (setting [5]), less than 40%; at LYN B (setting [6]) it was 21%. The inhibition at 10 µM at PDGFRA (PDGFR alpha) (setting [7]) is less than 40%; on PDGFRA (PDGFR alpha) (setting [8]), 10%.
As to `CCn1ncc2c1CCC(Nc1nc3c(-c4ccccc4)cccn3n1)C2` (centres unmarked) [Example 57, (1-Ethyl-4,5,6,7-tetrahydro-1H-indazol-5-yl)-(8-phenyl-[1,2,4]triazolo[1,5-a]pyridine-2-yl)-amine], the inhibition at 10 µM on FGFR2 (setting [1]) is less than 40%; at FGFR2 (setting [2]), 22%; on RPS6KB1 (p70S6K) (setting [3]), less than 40%; on LYN B (setting [5]) it was less than 40%; at LYN B (setting [6]), 20%; on PDGFRA (PDGFR alpha) (setting [7]), less than 40%. For the same molecule, the inhibition at 10 µM on PDGFRA (PDGFR alpha) (setting [8]) came out at 29%.
With `CC1(C)C(=O)Nc2ccc(Nc3nc4c(-c5cccc(F)c5)cccn4n3)cc21` [Cpd. 263 in WO09155551, reference compound], the inhibition at 10 µM on FGFR2 (setting [1]) was greater than 80%; on FGFR2 (read-out: % Inhibition mean), 102%; at RPS6KB1 (p70S6K) (setting [3]), greater than 80%; at RPS6KB1 (p70S6K) (read-out: % Inhibition mean) it was 93%; at LYN B (setting [5]), greater than 80%; on LYN B (read-out: % Inhibition mean), 98%. Moreover, the inhibition at 10 µM on PDGFRA (PDGFR alpha) (setting [7]) is greater than 80%; on PDGFRA (PDGFR alpha) (read-out: % Inhibition mean), 86%.
Take `Fc1cccc(-c2cccn3nc(Nc4ccc5[nH]cnc5c4)nc23)c1` [Cpd. 293 in WO09155551, reference compound]: the inhibition at 10 µM was greater than 80% on FGFR2 (setting [1]); 90% on FGFR2 (read-out: % Inhibition mean); greater than 80% at RPS6KB1 (p70S6K) (setting [3]); 85% at RPS6KB1 (p70S6K) (read-out: % Inhibition mean); greater than 80% on LYN B (setting [5]); 89% at LYN B (read-out: % Inhibition mean). In addition, the inhibition at 10 µM is greater than 80% at PDGFRA (PDGFR alpha) (setting [7]) and 88% at PDGFRA (PDGFR alpha) (read-out: % Inhibition mean).
For `CCn1ncc2c1CCC(Nc1nc3c(-c4cnccc4OC)cccn3n1)C2` (centres unmarked) [Example 68, (1-Ethyl-4,5,6,7-tetrahydro-1H-indazol-5-yl)-[8-(4-methoxy-pyridin-3-yl)-[1,2,4]triazolo[1,5-a]pyridine-2-yl]-amine], the inhibition at 10 µM on FGFR2 (setting [1]) is less than 40%; at FGFR2 (setting [2]), 28%; on RPS6KB1 (p70S6K) (setting [3]) it was less than 40%; at RPS6KB1 (p70S6K) (setting [4]), 17%; at LYN B (setting [5]), less than 40%; at LYN B (setting [6]), 22%. Besides, the inhibition at 10 µM was less than 40% on PDGFRA (PDGFR alpha) (setting [7]) and 23% at PDGFRA (PDGFR alpha) (setting [8]).

The inhibition is the change of the read-out against control, counted positive when it falls.

The values are drawn from US11339161B2, “Triazolo pyridines as modulators of gamma-secretase” (Boehringer Ingelheim International GmbH, priority 2017, dated 2022).
